Laboratory results as given in patent US20220009945A1, “NOVEL UREA 6,7-DIHYDRO-4H-THIAZOLE[5,4-C]PYRIDINES ACTIVE AGAINST THE HEPATITIS B VIRUS (HBV)” (AICURIS GMBH & CO. KG, priority 2018, published 2022).
Counter-ions that a name gives are not always drawn.

Each compound was assayed on HBV. Settings: Hepatitis B virus, HePAD38, 144 h, read-out: Cell Activity.
With Nc1nc2c(s1)CN(C(=O)Nc1ccc(F)c(Cl)c1)CC2 [Example 1, 2-amino -N-(3-chloro-4-fluorophenyl)-4H,5H,6H,7H-[1,3] thiazolo[5,4-c]pyridine-5-carboxamide] the EC50 was under 1 µM.
In the case of O=C(Nc1ccc(F)c(Cl)c1)N1CCc2nc(N[C@H]3C[C@H](O)C3)sc2C1 [Example 2, N-(3-chloro-4-fluorophenyl)-2-{[(1r,3r)-3-hydroxycyclobutyl]amino}-4H,5H,6H,7H-[1,3]thiazolo[5,4-c]pyridine-5-carboxamide], the EC50 is reported as under 1 µM.
O=C(Nc1ccc(F)c(Cl)c1)N1CCc2nc(NC3(CO)CCC3)sc2C1 [Example 3, N-(3-chloro-4-fluorophenyl)-2-{[1-(hydroxymethyl)cyclobutyl]amino}-4H,5H,6H,7H-[1,3]thiazolo[5,4-c]pyridine-5-carboxamide] was tested, and the EC50 was under 1 µM.
In the case of O=C(Nc1ccc(F)c(Cl)c1)N1CCc2nc(NC3CCOC3)sc2C1 (stereo not drawn) [Example 4, N-(3-chloro-4-fluorophenyl)-2-[(oxolan-3-yl)amino]-4H,5H,6H,7H-[1,3]thiazolo[5,4-c]pyridine-5-carboxamide], the EC50 is reported as under 1 µM.
Work on O=C(Nc1ccc(F)c(Cl)c1)N1CCc2nc(NCC3CCOC3)sc2C1 (stereo not drawn) [Example 5, N-(3-chloro-4-fluorophenyl)-2-{[(oxolan-3-yl)methyl]amino}-4H,5H,6H,7H-[1,3]thiazolo [5,4-c]pyridine-5-carboxamide] yielded an EC50 of under 1 µM.
With O=C(Nc1ccc(F)c(Cl)c1)N1CCc2nc(NCC3(O)CCC3)sc2C1 [Example 6, N-(3-chloro-4-fluorophenyl)-2-{[(1-hydroxycyclobutyl)methyl]amino}-4H,5H,6H,7H-[1,3]thiazolo[5,4-c]pyridine-5-carboxamide] the EC50 was under 1 µM.
O=C(Nc1ccc(F)c(Cl)c1)N1CCc2nc(N[C@H]3CC[C@@H](O)CC3)sc2C1 [Example 7, N-(3-chloro-4-fluorophenyl)-2-{[(1s,4s)-4-hydroxycyclohexyl]amino}-4H,5H,6H,7H-[1,3]thiazolo[5,4-c]pyridine-5-carboxamide] was tested, and the EC50 was under 1 µM.
With CN1CCC(C(=O)Nc2nc3c(s2)CN(C(=O)Nc2ccc(F)c(Cl)c2)CC3)CC1 [Example 8, N-{5-[(3-chloro-4-fluorophenyl)carbamoyl]-4H,5H,6H,7H-[1,3]thiazolo[5,4-c]pyridin-2-yl}-1-methylpiperidine-4-carboxamide formate] the EC50 was under 1 µM.
O=C(Nc1ccc(F)c(Cl)c1)N1CCc2nc(NCC3(O)CC(F)(F)C3)sc2C1 [Example 9, N-(3-chloro-4-fluorophenyl)-2-{[(3,3-difluoro-1-hydroxycyclobutyl)methyl]amino}-4H,5H,6H,7H-[1,3]thiazolo[5,4-c]pyridine-5-carboxamide] showed an EC50 of under 1 µM.
O=C(Nc1nc2c(s1)CN(C(=O)Nc1ccc(F)c(Cl)c1)CC2)C1CCOC1 (stereo not drawn) [Example 10, N-(3-chloro-4-fluorophenyl)-2-(oxolane-3-amido)-4H,5H,6H,7H-[1,3]thiazolo[5,4-c]pyridine-5-carboxamide] was tested, and the EC50 was under 1 µM.
For O=C(Nc1nc2c(s1)CN(C(=O)Nc1ccc(F)c(Cl)c1)CC2)C1CCOCC1 [Example 11, N-(3-chloro-4-fluorophenyl)-2-(oxane-4-amido)-4H,5H,6H,7H-[1,3]thiazolo[5,4-c]pyridine-5-carboxamide], the EC50 was under 1 µM.
Work on O=C(Nc1ccc(F)c(Cl)c1)N1CCc2nc(NCC3(O)CC3)sc2C1 [Example 12, N-(3-chloro-4-fluorophenyl)-2-{[(1-hydroxycyclopropyl)methyl]amino}-4H,5H,6H,7H-[1,3]thiazolo[5,4-c]pyridine-5-carboxamide] yielded an EC50 of under 1 µM.
In the case of Cc1cc(NC(=O)N2CCc3nc(NCC4(O)CCC4)sc3C2)ccc1F [Example 13, N-(4-fluoro-3-methylphenyl)-2-{[(1-hydroxycyclobutyl)methyl]amino}-4H,5H,6H,7H-[1,3]thiazolo[5,4-c]pyridine-5-carboxamide], the EC50 is reported as under 1 µM.
N#Cc1cc(NC(=O)N2CCc3nc(NCC4(O)CCC4)sc3C2)ccc1F [Example 14, N-(3-cyano-4-fluorophenyl)-2-{[(1-hydroxycyclobutyl)methyl]amino}-4H,5H,6H,7H-[1,3]thiazolo[5,4-c]pyridine-5-carboxamide] showed an EC50 of under 1 µM.
With O=C(Nc1nc2c(s1)CN(C(=O)Nc1ccc(F)c(Cl)c1)CC2)C1CCC(O)CC1 (stereo not drawn) [Example 15, N-(3-chloro-4-fluorophenyl)-2-(4-hydroxycyclohexaneamido)-4H,5H,6H,7H-[1,3]thiazolo[5,4-c]pyridine-5-carboxamide] the EC50 was under 1 µM.
O=C(Nc1ccnc(C(F)F)c1)N1CCc2nc(N[C@H]3C[C@H](O)C3)sc2C1 [Example 16, N-[2-(difluoromethyl)pyridin-4-yl]-2-{[(1r,3r)-3-hydroxycyclobutyl]amino}-4H,5H,6H,7H-[1,3]thiazolo[5,4-c]pyridine-5-carboxamide] showed an EC50 of 1 to 10 µM.
For O=C(Nc1ccc(F)c(Cl)c1)N1CCc2nc(NS(=O)(=O)C3CC3)sc2C1 [Example 17, N-(3-chloro-4-fluorophenyl)-2-cyclopropanesulfonamido-4H,5H,6H,7H-[1,3]thiazolo[5,4-c]pyridine-5-carboxamide], the EC50 was 1 to 10 µM.
CC1(S(=O)(=O)Nc2nc3c(s2)CN(C(=O)Nc2ccc(F)c(Cl)c2)CC3)CC1 [Example 18, N-(3-chloro-4-fluorophenyl)-2-(1-methylcyclopropanesulfonamido)-4H,5H,6H,7H-[1,3]thiazolo[5,4-c]pyridine-5-carboxamide] gave an EC50 of 1 to 10 µM.
In the case of O=C(Nc1ccnc(C(F)F)c1)N1CCc2nc(NCC3(O)CCC3)sc2C1 [Example 19, N-[2-(difluoromethyl)pyridin-4-yl]-2-{[(1-hydroxycyclobutyl)methyl]amino}-4H,5H,6H,7H-[1,3]thiazolo[5,4-c]pyridine-5-carboxamide], the EC50 is reported as 1 to 10 µM.
Compound O=C(Nc1ccc(F)c(Cl)c1)N1CCc2nc(NC(=O)[C@H]3C[C@H](O)C3)sc2C1 [Example 20, N-(3-chloro-4-fluorophenyl)-2-[(1r,3r)-3-hydroxycyclobutaneamido]-4H,5H,6H,7H-[1,3]thiazolo[5,4-c]pyridine-5-carboxamide] has an EC50 of under 1 µM.
Work on C[C@H]1Cc2nc(NC(=O)[C@H]3C[C@H](O)C3)sc2CN1C(=O)Nc1ccc(F)c(Cl)c1 [Example 21, (6S)-N-(3-chloro-4-fluorophenyl)-6-methyl-2-[(1r,3r)-3-hydroxycyclobutaneamido]-4H,5H,6H,7H-[1,3]thiazolo[5,4-c]pyridine-5-carboxamide] yielded an EC50 of under 1 µM.
